Assay results reported in patent US10703701B2, “Fluoroalkyl, fluoroalkoxy, phenoxy, heteroaryloxy, alkoxy, and amine 1,4-benzoquinone derivatives for treatment of oxidative stress disorders” (PTC Therapeutics, Inc., priority 2015, dated 2020).

Tests used:
[1] = system: Q7 cells (ST HDH Q7/7; immortalized mouse striatal cells); experiment: 384-Well Cell Titer Glo (CTG) Q7 Cystine Deprivation Survival Assay; format: cell-based; settings: read-out: Q7 Cystine Free CTG 384 CSA (EC50)
Protocol: (§1) In neuronal cells excess extracellular glutamate inhibits the cystine/glutamate antiporter leading to intracellular cysteine depletion, GSH depletion, ROS production and cell death, a phenomenon termed oxidative glutamate toxicity or oxytosis. Q7 cells (ST HDH Q7/7; immortalized mouse striatal cells) challenged with cystine-free media recapitulate this phenotype. An initial screen was performed to identify compounds effective in rescuing Q7 cells from death resulting from cystine deprivation. This method is further described in Yonezawa et al., J. Neurochem 67, 566-573 (1996), and Li et al., J Neurosci., 23, 5816-5826 (2003).
(§2) DMEM (Catalog no. 11995-040), DMEM without Cystine (Catalog no. 21013-024), PBS (Phosphate buffered saline), Penicillin-streptomycin mix, L-Glutamine and Pyruvate were purchased from Gibco. Fetal Bovine Serum was obtained from Mediatech, Inc. Mouse striatum derived ST HDH Q7/7 (Q7) cells were obtained from Dr. M. MacDonald (Massachusetts General Hospital). Methionine and Vitamin K2 were purchased from Sigma Aldrich. Cell Titer Glo 2.0 was purchased from Promega. Geneticin (G418) Sulfate was purchased from Santa Cruz Biotechnology. Cell culture medium (Growth medium) was made by combining 50 mL Fetal Bovine Serum, 100 U/mL penicillin, 100 microgram/mL streptomycin and 400 microgram/mL Geneticin (G418) Sulfate; DMEM was added to make the volume up to 500 mL. Assay medium (without Cystine) was made by combining 50 mL Fetal Bovine Serum, 100 U/mL penicillin, 100 microgram/mL streptomycin, 4 mM L-Glutamine, 1 mM Pyruvate and 30 mg/L Methionine; DMEM without Cystine was added to make the volume up to 500 mL. During the course of the experiments, these solutions were stored at 4° C. The cells were grown in 10-cm diameter tissue culture-treated dishes. Every fourth day, the cells were subcultured by trypsinization and re-seeding at a cell density of 500,000 cells per dish.
(§3) Test samples were supplied in 1.5 mL glass vials. The compounds were diluted with an appropriate volume of DMSO to result in a 1 mM stock solution. Once dissolved, they were stored at −20° C.
Test Samples were Screened According to the Following Protocol:
Q7 cells were cultured routinely as described herein. For 384-well cell survival assays, cells were seeded in clear bottom, black wall 384-well tissue culture-treated polystyrene plates by resuspending a cell suspension at a density of 50,000 cells/mL in growth medium, then dispensing 60 microliters of cell suspension per well using either an electronic multichannel pipette or a Multidrop™ Combi Reagent Dispenser (ThermoFisher Scientific), corresponding to 3,000 cells/well. The cell-containing plates were incubated 5 hours at 33° C. in an atmosphere with 95% humidity and 5% CO2 to allow attachment of the cells to the culture plate.
5 hours after cell seeding into the 384-well assay plate, the cell culture medium was replaced by washing 2 times with 70 microliters/well PBS (without Ca^++ and Mg^++) using a BioTek ELx405 plate washer. After the final aspiration, 60 microliters/well of assay medium (without cystine) was added using the Multidrop Combi Reagent Dispenser. Within 45 minutes, test compounds were then added to varying final concentrations using the Tecan D300e Digital Dispenser, with subsequent back-filling with DMSO diluent to a final concentration of 0.3% (v/v).
After medium change to cystine-free medium and compound addition, cell plates were incubated at 33° C. in an atmosphere of 5% CO2 and 95% humidity. 18 hours later, the plates were equilibrated to room temperature for 15 minutes. Then, 10 microliters/well of room temperature Cell Titer Glo 2.0 reagent was added using the Multidrop Combi Reagent Dispenser. After 15 minutes of incubation at room temperature, the luminescence (100 ms integration time) per well was determined using the BioTek Synergy plate reader. Data was imported into Microsoft Excel. […]

[2] = system: Q7 cells (ST HDH Q7/7; immortalized mouse striatal cells); experiment: Q7 cystine deprivation cell survival assay (96-well, Calcein AM); format: cell-based; settings: for EC50: Mus musculus, rescue of Q7 cells from cystine deprivation, 18 hours, Calcein AM fluorescence, 96-well
Protocol: as §1
as §2, with “21013-024),” for “21013-024), PBS (Phosphate buffered saline),”, “Calcein AM” for “Cell Titer Glo 2.0”, “Anaspec.” for “Promega.”
as §3
Test samples were screened according to the following protocol:
Q7 cells were cultured routinely as described herein. For cell survival assays, cells were seeded in clear 96-well tissue culture-treated polystyrene plates by resuspending a cell suspension at a density of 100,000 cells/mL in growth medium, then dispensing 100 microliters of cell suspension per well using an electronic multichannel pipette, corresponding to 10,000 cells/well. The cell-containing plates were incubated 5 hours at 33° C. in an atmosphere with 95% humidity and 5% CO2 to allow attachment of the cells to the culture plate.
Test compounds were thawed, and 2 microliters of a 1 mM stock solution was diluted in a microtiter plate well containing 98 microliters of 10% DMSO in H2O, resulting in a 20 micromolar master solution. Serial dilutions from the master solution were made in 10% DMSO. The period between the single dilution steps was kept as short as possible (generally less than 30 seconds). 5 hours after cell seeding into the 96-well assay plate, the cell culture medium was removed by inverting the plates and gently patted onto paper towel. The plates were washed once with 100 microliters of PBS containing Ca^++ and Mg^++. PBS containing Ca^++ and Mg^++ were removed by inverting the plates and gently patted onto a paper towel. After washing the wells, 100 microliters of assay medium without Cystine was dispensed and then treated with 10 microliters of the various compound dilutions in triplicates. Final concentration of DMSO in the well was 1%.
After medium change to cystine-free medium and compound addition, cell plates were incubated at 33° C. in an atmosphere of 5% CO2 and 95% humidity. 18 hours later, the medium from all plates was removed by inverting the plates and gently tapping the plate onto a paper towel. […]

[3] = rescue of Q7 cells from cystine deprivation, 18 hours, Cell Titer Glo luminescence, 384-well

Compound	EC50 [1, 3] [nM]	EC50 [2] [nM]	EC50 ([1]; 18 h) [nM]	other results
CC1=C(C)C(=O)C(CCCCCCCCOCC(F)(F)F)=C(C)C1=O [Example 1, 2,3,5-trimethyl-6-(8-(2,2,2-trifluoroethoxy)octyl)cyclohexa-2,5-diene-1,4-dione]	100 to 500	500 to 1000	–	–
CC1=C(C)C(=O)C(CCCCCCCCC(F)(F)F)=C(C)C1=O [Example 2, 2,3,5-trimethyl-6-(9,9,9-trifluorononyl)cyclohexa-2,5-diene-1,4-dione]	100 to 500	500 to 1000	–	–
COCCCCCCCCC1=C(C)C(=O)C(C)=C(C)C1=O [Example 3, 2-(8-methoxyoctyl)-3,5,6-trimethylcyclohexa-2,5-diene-1,4-dione]	100 to 500	500 to 1000	–	–
CC1=C(C)C(=O)C(CCCCCCCCCCC(F)(F)F)=C(C)C1=O [Example 4, 2,3,5-trimethyl-6-(11,11,11-trifluoroundecyl)cyclohexa-2,5-diene-1,4-dione]	< 100	< 500	–	–
CC1=C(C)C(=O)C(CCCCCCCCCCOCC(F)(F)F)=C(C)C1=O [Example 5, 2,3,5-trimethyl-6-(10-(2,2,2-trifluoroethoxy)decyl)cyclohexa-2,5-diene-1,4-dione]	< 100	< 500	–	–
COCCCCCCCCCCC1=C(C)C(=O)C(C)=C(C)C1=O [Example 6, 2-(10-methoxydecyl)-3,5,6-trimethylcyclohexa-2,5-diene-1,4-dione]	< 100	500 to 1000	–	–
CC1=C(C)C(=O)C(C(C)C)=C(CCCCCCCCCCC(F)(F)F)C1=O [Example 7, 2-isopropyl-5,6-dimethyl-3-(11,11,11-trifluoroundecyl)cyclohexa-2,5-diene-1,4-dione]	100 to 500	< 500	–	–
CC1=C(C)C(=O)C(NS(C)(=O)=O)=C(CCCCCCCCCCC(F)(F)F)C1=O [Example 8, N-(4,5-dimethyl-3,6-dioxo-2-(11,11,11-trifluoroundecyl)cyclohexa-1,4-dien-1-yl)methanesulfonamide]	< 100	–	–	–
CC1=C(C)C(=O)C(CCCCCCCCCCOC(C)C)=C(C)C1=O [Example 9, 2-(10-isopropoxydecyl)-3,5,6-trimethylcyclohexa-2,5-diene-1,4-dione]	–	–	< 100	–
CCOCCCCCCCCC1=C(C)C(=O)C(C)=C(C)C1=O [Example 10, 2-(8-ethoxyoctyl)-3,5,6-trimethylcyclohexa-2,5-diene-1,4-dione]	–	–	< 100	–
CC1=C(C)C(=O)C(CCCCCCCCCCOCC(C)C)=C(C)C1=O [Example 11, 2-(10-isobutoxydecyl)-3,5,6-trimethylcyclohexa-2,5-diene-1,4-dione]	–	–	< 100	–
CCCOCCCCCCCCCCC1=C(C)C(=O)C(C)=C(C)C1=O [Example 12, 2,3,5-trimethyl-6-(10-propoxydecyl)cyclohexa-2,5-diene-1,4-dione]	–	–	< 100	–
CC1=C(C)C(=O)C(CCCCCCCCCCOc2ccccc2)=C(C)C1=O [Example 13, 2,3,5-trimethyl-6-(10-phenoxydecyl)cyclohexa-2,5-diene-1,4-dione]	–	–	< 100	–
CC1=C(C)C(=O)C(CCCCCCCCOC(C)C)=C(C)C1=O [Example 14, 2-(8-isopropoxyoctyl)-3,5,6-trimethylcyclohexa-2,5-diene-1,4-dione]	–	–	< 100	–
COCCCCCCC1=C(C)C(=O)C(C)=C(C)C1=O [Example 15, 2-(6-methoxyhexyl)-3,5,6-trimethylcyclohexa-2,5-diene-1,4-dione]	–	–	100 to 500	–
CCOCCCCCCCCCCC1=C(C)C(=O)C(C)=C(C)C1=O [Example 16, 2-(10-ethoxydecyl)-3,5,6-trimethylcyclohexa-2,5-diene-1,4-dione]	< 100	–	–	–
CCCOCCCCCCCCC1=C(C)C(=O)C(C)=C(C)C1=O [Example 17, 2,3,5-trimethyl-6-(8-propoxyoctyl)cyclohexa-2,5-diene-1,4-dione]	< 100	–	–	–
CC1=C(C)C(=O)C(CCCCCCCCOCC(C)C)=C(C)C1=O [Example 18, 2-(8-isobutoxyoctyl)-3,5,6-trimethylcyclohexa-2,5-diene-1,4-dione]	–	–	< 100	–
CC1=C(C)C(=O)C(CCCCCCCCOc2cccnc2C)=C(C)C1=O [Example 19, 2,3,5-trimethyl-6-(8-((2-methylpyridin-3-yl)oxy)octyl)cyclohexa-2,5-diene-1,4-dione]	–	–	100 to 500	–
CC1=C(C)C(=O)C(CCCCCCCCCCN(C)CC(C)C)=C(C)C1=O [Example 20, 2-(10-(isobutyl(methyl)amino)decyl)-3,5,6-trimethylcyclohexa-2,5-diene-1,4-dione]	< 100	–	–	–
CC1=C(C)C(=O)C(CCCCCCCCCCN2CCCC2)=C(C)C1=O [Example 21, 2,3,5-trimethyl-6-(10-(pyrrolidin-1-yl)decyl)cyclohexa-2,5-diene-1,4-dione]	< 100	–	–	–
CC1=C(C)C(=O)C(CCCCCCCCCCNCC(C)C)=C(C)C1=O [Example 22, 2-(10-(isobutylamino)decyl)-3,5,6-trimethylcyclohexa-2,5-diene-1,4-dione]	–	–	< 100	–
CC(C)=CCC/C(C)=C/CC/C(C)=C/CC/C(C)=C/CC1=C(C)C(=O)c2ccccc2C1=O [Vitamin K2, reference compound]	–	–	–	rescue of cystine deprivation-induced reduction in cell viability ([2]; 1 micromolar, defined as 100% relative viability): completely rescued
